{"source": "patent US8962587B2", "about": "“Gene delivery of OCT4 and SirT1 and pharmaceutical compositions thereof” (Taipei Veterans General Hospital, priority 2011, dated 2015)", "test_system": "aRPE cells", "test": "intracellular ROS, GSH, MDA, antioxidant enzyme activity and survival in aRPE cells (basal, H2O2, BSO, Tempol)", "type": "cell-based, human", "settings": "aRPE-PU cells, pretreatment 0.5 mmol/L, then 100 μM H2O2, p<0.05 vs H2O2", "procedure": "The results were expressed as nmol/g protein. Total SOD activity was determined by Superoxide Dismutase Activity Colorimetric Assay Kit (Abcam) according to manufacturer's protocol. SOD activity was expressed as units/g protein. GSH-Px and CAT activities were measured by glutathione peroxidase cellular activity assay kit and catalase assay kit, both are purchased from Sigma.\nCultured aRPE cells were washed with PBS twice and treated with 100 μM H2O2. After 8 hours, the medium was removed, and the cells were collected for the subsequent experiments. […] In brief, cells were incubated with […] DCFH-DA in culture medium for 30 min at 37° C., followed by washing with PBS and flow cytometric analysis. The intracellular GSH content was detected by colorimetric assay using the GSH-400 kit (OXIS International, Portland, Oreg., USA). In the GSH-400 assay, 4-chloro-1-methyl-7-trifluoromethyl-quinolinium methylsulfate was added to react with all mercaptans in the sample, leading to the formation of substitution products, […]. Then, 30% sodium hydroxide was used to mediate a β-elimination reaction and specifically transform GSH-thioester into a chromophoricthione with a maximal absorbance wavelength at 400 nm that was detected by a spectrophotometer."}
{"compound": "CC1(C)CC(O)CC(C)(C)N1[O]", "note": "[Tempol, 4-hydroxy-2,2,6,6-tetramethylpiperidinyloxy]", "values": [{"measurement": "H2O2-induced ROS production", "result": "decreased"}, {"measurement": "H2O2-induced cell death", "result": "decreased"}]}
